# Patent US20200000825A1, “METHODS AND COMPOSITIONS FOR TREATING AND PREVENTING VIRAL INFECTIONS” (ENTERIN LABORATORIES, INC., priority 2009, published 2020)
# Tested on: HUVECs
# Assay: Thrombin induced stress fiber formation in endothelial cells
# Assay type: cell-based, human
# Conditions: aminosterol 20 μM, thrombin 20 ng/ml, 2 hours
# Procedure: The basic methods have been published (Williams, […] et al. 2001). HUVECs were grown on fibronectin-covered coverslips in EGM medium. […] Following a rinse, the cells were exposed to a 1:400 dilution of an FITC-goat antimurine antibody and 250 ng/ml TRITC phalloidin. The stained coverslips were visualized by fluorescence microscopy.
row,Compound,Disruption of thrombin induced stress fiber formation
1,CC(C)[C@@H](CC[C@@H](C)[C@H]1CC[C@H]2[C@@H]3[C@H](O)C[C@H]4C[C@H](NCCCNCCCCN)CC[C@]4(C)[C@H]3CC[C@]12C)OS(=O)(=O)O [Compound B],disrupt thrombin induced stress fiber formation and inhibited thrombin-induced stress fiber formation and Yes
2,CC(C)[C@@H](CC[C@@H](C)[C@H]1CC[C@H]2[C@@H]3[C@H](O)C[C@H]4CC(N)CC[C@]4(C)[C@H]3CC[C@]12C)OS(=O)(=O)O (stereo partly drawn) [Compound E],not observed and No
3,CC(C)[C@H](CC[C@@H](C)[C@H]1CC[C@H]2[C@@H]3[C@H](O)C[C@H]4C[C@@H](NCCCNCCCCN)CC[C@]4(C)[C@H]3CC[C@]12C)OS(=O)(=O)O [Compound C],disrupt thrombin induced stress fiber formation and inhibited thrombin-induced stress fiber formation and Yes
4,CC(C)[C@@H](CC[C@H](C)[C@H]1CC[C@H]2[C@@H]3[C@H](O)C[C@H]4C[C@@H](NCCCNCCCCN)CC[C@]4(C)[C@H]3CC[C@]12C)OS(=O)(=O)O [Compound D],not observed and inactive and No
5,CC(C)[C@@H](CC[C@@H](C)[C@H]1CC[C@H]2[C@@H]3[C@@H](O)C[C@H]4C[C@@H](NCCCNCCCCN)CC[C@]4(C)[C@H]3CC[C@]12C)OS(=O)(=O)O [Compound A],disrupt thrombin induced stress fiber formation and inhibited thrombin-induced stress fiber formation and Yes
6,CC(C)[C@@H](CC[C@@H](C)[C@H]1CC[C@H]2[C@@H]3[C@H](O)C[C@H]4C[C@@H](NCCCOCCCN)CC[C@]4(C)[C@H]3CC[C@]12C)OS(=O)(=O)O [Compound F],not observed and No
